Data from patent US20090298866A1, “Indole Compounds” (priority 2006, published 2009).
Counter-ions that a name gives are not always drawn.

Experiments:
human EP3 receptor = molecular target: T1, human EP3 receptor (Homo sapiens, UniProt P43115); experiment: human EP3 calcium mobilisation assay; format: cell-based; conditions: heading: functional pKi; human EP3, CHO-K1 cells, PGE2-induced calcium mobilisation; averages of a number of experiments
T1 construct: expressed in transfected cells; host or cells: CHO-K1
T1 sequence (P43115 1-390): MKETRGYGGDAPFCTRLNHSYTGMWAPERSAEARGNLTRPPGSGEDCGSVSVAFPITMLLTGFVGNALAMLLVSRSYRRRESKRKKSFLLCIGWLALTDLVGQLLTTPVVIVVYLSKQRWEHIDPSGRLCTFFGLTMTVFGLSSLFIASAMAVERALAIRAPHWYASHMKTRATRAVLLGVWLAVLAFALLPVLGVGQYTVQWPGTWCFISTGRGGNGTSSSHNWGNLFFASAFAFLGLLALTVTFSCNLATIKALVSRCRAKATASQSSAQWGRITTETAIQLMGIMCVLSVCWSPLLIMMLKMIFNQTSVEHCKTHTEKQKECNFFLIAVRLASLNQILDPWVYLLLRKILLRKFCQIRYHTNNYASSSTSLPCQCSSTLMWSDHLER
Protocol: (§1) Briefly, the antagonist properties of compounds are assessed by their ability to inhibit the mobilisation of intracellular calcium ([Ca^2+]i) in response to activation of EP1 or EP3 receptors by the natural agonist hormone prostaglandin E2 (PGE2). Increasing concentrations of antagonist reduce the amount of calcium that a given concentration of PGE2 can mobilise. The net effect is to displace the PGE2 concentration-effect curve to higher concentrations of PGE2. The amount of calcium produced is assessed using a calcium-sensitive fluorescent dye such as Fluo-4, AM and a suitable instrument such as a Fluorimetric Imaging Plate Reader (FLIPR). Increasing amounts of [Ca^2+]i produced by receptor activation increase the amount of fluorescence produced by the dye and give rise to an increasing signal. The signal may be detected using the FLIPR instrument and the data generated may be analysed with suitable curve-fitting software.
(§2) The human EP1 or EP3 calcium mobilisation assay (hereafter referred to as ‘the calcium assay’) utilises Chinese hamster ovary-K1 (CHO-K1) cells into which a stable (pCIN; BioTechniques 20 (1996): 102-110) vector containing either EP1 or EP3 cDNA has previously been transfected. Cells are cultured in suitable flasks containing culture medium such as DMEM:F-12 supplemented with 10% v/v foetal calf serum, 2 mM L-glutamine, 0.25 mg/ml geneticin, 100 μM flurbiprofen and 10 μg/ml puromycin.
(§3) For assay, cells are harvested using a proprietary reagent that dislodges cells such as Versene. Cells are re-suspended in a suitable quantity of fresh culture media for introduction into a 384-well plate. Following incubation for 24 hours at 37° C. the culture media is replaced with a medium containing Fluo-4 and the detergent pluronic acid, and a further incubation takes place. Concentrations of compounds are then added to the plate in order to construct concentration-effect curves. This may be performed on the FLIPR in order to assess the agonist properties of the compounds. Concentrations of PGE2 are then added to the plate in order to assess the antagonist properties of the compounds.
(§4) The data so generated may be analysed by means of a computerised curve-fitting routine. The concentration of compound that elicits a half-maximal inhibition of the calcium mobilisation induced by PGE2 (pIC50) may then be estimated.

human EP1 receptor [1] = molecular target: T2, human EP1 receptor (Homo sapiens, UniProt P34995); experiment: human EP1 calcium mobilisation assay; format: cell-based; conditions: human EP1, CHO-K1 cells, PGE2-induced calcium mobilisation; averages of a number of experiments; read-out: functional pKi (converted)
T2 construct: expressed in transfected cells; host or cells: CHO-K1
T2 sequence (P34995 1-402): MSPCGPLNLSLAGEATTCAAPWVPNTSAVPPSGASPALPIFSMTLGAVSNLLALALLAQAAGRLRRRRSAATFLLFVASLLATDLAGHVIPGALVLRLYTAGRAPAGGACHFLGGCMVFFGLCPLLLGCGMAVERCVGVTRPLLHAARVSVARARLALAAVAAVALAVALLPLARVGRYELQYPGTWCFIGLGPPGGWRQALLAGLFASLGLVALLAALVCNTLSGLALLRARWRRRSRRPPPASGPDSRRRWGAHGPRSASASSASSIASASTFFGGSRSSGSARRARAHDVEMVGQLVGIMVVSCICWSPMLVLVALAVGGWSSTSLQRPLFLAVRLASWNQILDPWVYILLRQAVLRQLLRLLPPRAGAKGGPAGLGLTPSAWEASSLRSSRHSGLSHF
Protocol: as §1, §2, §3, §4

[2] = test system: rodent model of post-operative pain; conditions: Anesthesia and Analgesia 2001, 92, 233-238; cited from earlier work
[3] = test system: rat model of chronic constriction injury; conditions: Anesthesia and Analgesia 2001, 93, 1012-7; cited from earlier work
human EP1 receptor [4] = molecular target: T2, human EP1 receptor; experiment: Binding assay for the human prostanoid EP1 receptor (competition with [3H]-PGE2); conditions: binding to human EP1 receptor, CHO-K1 membranes, [3H]-PGE2 3 nM; averages of a number of experiments
Protocol: Competition assay using [^3H]-PGE2.
Compound potencies are determined using a radioligand binding assay. In this assay compound potencies are determined from their ability to compete with tritiated prostaglandin E2 ([^3H]-PGE2) for binding to the human EP1 receptor. This assay utilises Chinese hamster ovary-K1 (CHO-K1) cells into which a stable vector containing the EP1 cDNA has previously been transfected. Cells are cultured in suitable flasks containing culture medium such as DMEM:F-12 supplemented with 10% v/v foetal calf serum, 2 mM L-glutamine, 0.25 mg/ml geneticin, 10 μg/ml puromycin and 10 μM indomethacin.
Cells are detached from the culture flasks by incubation in calcium and magnesium free phosphate buffered saline containing 1 mM disodium ethylenediaminetetraacetic acid (Na2EDTA) and 10 μM indomethacin for 5 min. The cells are isolated by centrifugation at 250×g for 5 mins and suspended in an ice cold buffer such as 50 mM Tris, 1 mM Na2EDTA, 140 mM NaCl, 10 μM indomethacin (pH 7.4). The cells are homogenised using a Polytron tissue disrupter (2×10 s burst at full setting), centrifuged at 48,000×g for 20 mins and the pellet containing the membrane fraction is washed (optional) three times by suspension and centrifugation at 48,000×g for 20 mins. The final membrane pellet is suspended in an assay buffer such as 10 mM 2-[N-morpholino]ethanesulphonic acid, 1 mM Na2EDTA, 10 mM MgCl2 (pH 6). Aliquots are frozen at −80° C. until required.
For the binding assay the cell membranes, competing compounds and [^3H]-PGE2 (3 nM final assay concentration) are incubated in a final volume of 100 μl for 30 min at 30° C. All reagents are prepared in assay buffer. Reactions are terminated by rapid vacuum filtration over GF/B filters using a Brandell cell harvester. The filters are washed with ice cold assay buffer, dried and the radioactivity retained on the filters is measured by liquid scintillation counting in Packard TopCount scintillation counter.
The data are analysed using non linear curve fitting techniques to determine the concentration of compound producing 50% inhibition of specific binding (IC50).

Row | SMILES | Ki (human EP3 receptor) [µM] | IC50 (human EP1 receptor [4]) [µM] | also measured
1 | CC(C)Cc1cn(-c2nc(-c3nc4c(CO)cccc4[nH]3)cs2)c2cc(Cl)ccc12 [Example 46, (2-{2-[6-Chloro-3-isobutyl-1H-indol-1-yl]-1,3-thiazol-4-yl}-1H-benzimidazol-4-yl)methanol] | > 3.16 |  | Ki (human EP1 receptor [1]): ≤ 0.1 µM
2 | Cc1cc(Cl)ccc1S(=O)(=O)NC[C@H]1C2CCC(CC2)[C@@H]1/C=C\CCCC(=O)O [ONO-8711] |  |  | mechanical hyperalgesia [2]: inhibits mechanical hyperalgesia; hyperalgesia and allodynia [3]: reduces hyperalgesia and allodynia
3 | CCCNC(=O)Nc1csc(-n2cc(CC(C)C)c3ccc(Cl)cc32)n1 [Example 10, N-[2-(6-Chloro-3-isobutyl-1H-indol-1-yl)-1,3-thiazol-4-yl]-N′-propylurea] | > 3.16 |  | 
4 | CC(C)Cc1cn(-c2nc(-c3nc4cc(CO)ccc4[nH]3)cs2)c2cc(Cl)ccc12 [Example 45, (2-{2-[6-Chloro-3-isobutyl-1H-indol-1-yl]-1,3-thiazol-4-yl}-1H-benzimidazol-5-yl)methanol hydrochloride] | > 3.16 | ≤ 0.1 | 
5 | CC(C)Cc1cn(-c2nc(NC(=O)c3cccnc3)cs2)c2cc(Cl)ccc12 [Example 6, N-[2-(6-Chloro-3-isobutyl-1H-indol-1-yl)-1,3-thiazol-4-yl]nicotinamide] | > 3.16 |  | 
6 | CC(=O)OCc1ccc(C(=O)Nc2csc(-n3cc(CC(C)C)c4ccc(Cl)cc43)n2)cc1 [Example 56, {4-[({2-[6-Chloro-3-(2-methylpropyl)-1H-indol-1-yl]-1,3-thiazol-4-yl}amino)carbonyl]phenyl}methyl acetate] | > 3.16 |  | 
7 | CC(C)Cc1cn(-c2nc(NC(=O)c3ccc(CO)cc3)cs2)c2cc(Cl)ccc12 [Example 9, N-[2-(6-Chloro-3-isobutyl-1H-indol-1-yl)-1,3-thiazol-4-yl]-4-(hydroxymethyl)benzamide] | > 3.16 |  | 
8 | CC(C)Cc1cn(-c2nc(-c3nnc[nH]3)cs2)c2cc(Cl)ccc12 [Example 54, 3-[2-(6-Chloro-3-isobutyl-1H-indol-1-yl)-1,3-thiazol-4-yl]-4H-1,2,4-triazole] | > 3.16 |  | 
9 | Cc1nnc(-c2csc(-n3cc(CC(C)C)c4ccc(Cl)cc43)n2)[nH]1 [Example 55, 3-[2-(6-Chloro-3-isobutyl-1H-indol-1-yl)-1,3-thiazol-4-yl]-5-methyl-4H-1,2,4-triazole] | > 3.16 | ≤ 0.1 | 
10 | CC(C)Cc1cn(-c2nc(-c3nc4ccccc4[nH]3)co2)c2cc(Cl)ccc12 [Example 36, 2-{2-[6-Chloro-3-isobutyl-1H-indol-1-yl]-1,3-oxazol-4-yl}-1H-benzimidazole hydrochloride] | > 3.16 | ≤ 0.1 | 
11 | CC(C)Cc1cn(-c2nc(C(=O)Nc3ccncc3)cs2)c2cc(Cl)ccc12 [Example 25, 2-[6-Chloro-3-isobutyl-1H-indol-1-yl]-N-4-pyridinyl-1,3-thiazole-4-carboxamide] | > 3.16 |  | 
12 | CC(C)Cc1cn(-c2nc(C(=O)Nc3c(F)cccc3F)cs2)c2cc(Cl)ccc12 [Example 33, 2-[6-Chloro-3-isobutyl-1H-indol-1-yl]-N-(2,6-difluorophenyl)-1,3-thiazole-4-carboxamide] | > 3.16 | ≤ 0.1 | Ki (human EP1 receptor [1]): ≤ 0.1 µM
